This is an account of results in patent US20240150290A1, “HETEROCYCLIC P2Y14 RECEPTOR ANTAGONISTS” (priority 2021, published 2024).

Converted amounts (≈) assume the structure as drawn. Read-outs that look alike come from different tables or passages of the source.

Series [1] can be described thus: Aqueous solubility, pION method.
The nature of series [2]: HPLC-based lipophilicity (Log D7.4). The following applies: for chromatographic logD: pH 7.4.
Series [3] deals with T1, hP2Y14R (Homo sapiens, UniProt Q15391).
T1 construct: expressed in transfected cells; host or cells: CHO cells
T1 sequence (Q15391 1-338): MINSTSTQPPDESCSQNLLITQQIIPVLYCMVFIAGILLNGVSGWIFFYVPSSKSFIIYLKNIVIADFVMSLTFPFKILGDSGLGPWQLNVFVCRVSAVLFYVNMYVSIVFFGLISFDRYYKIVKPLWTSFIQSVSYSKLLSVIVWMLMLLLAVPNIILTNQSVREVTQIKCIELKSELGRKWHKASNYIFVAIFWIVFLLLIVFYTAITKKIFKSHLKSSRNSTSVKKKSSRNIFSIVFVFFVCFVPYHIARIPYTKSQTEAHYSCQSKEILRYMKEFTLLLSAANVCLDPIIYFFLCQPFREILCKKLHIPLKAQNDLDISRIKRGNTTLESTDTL
Nature of the series: Inhibition of fluorescent antagonist binding in whole hP2Y14R-expressing CHO cells (flow cytometry).

Series [4] addresses hERG ion channel (Homo sapiens, UniProt Q12809). The series is described as follows: hERG ion channel block, patch clamp assay.
The target in series [5] is T2, mP2Y14R (Mus musculus, UniProt Q9ESG6).
T2 sequence (Q9ESG6 1-338): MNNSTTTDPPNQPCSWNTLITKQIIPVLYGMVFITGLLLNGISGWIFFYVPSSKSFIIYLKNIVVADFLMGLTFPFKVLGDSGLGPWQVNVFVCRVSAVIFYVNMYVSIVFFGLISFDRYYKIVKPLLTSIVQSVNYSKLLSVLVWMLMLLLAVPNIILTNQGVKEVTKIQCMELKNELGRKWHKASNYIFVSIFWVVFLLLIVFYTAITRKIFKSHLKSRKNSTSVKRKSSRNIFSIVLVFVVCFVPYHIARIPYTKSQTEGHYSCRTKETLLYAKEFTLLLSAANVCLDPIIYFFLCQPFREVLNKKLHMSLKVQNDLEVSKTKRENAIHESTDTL
The series is described as follows: cell-based. The following applies: for affinity at the mP2Y14R vs the human homologue: comparison of species, in words. The source says: Desirably, receptor affinity is maintained across species, facilitating performance in in vivo preclinical testing in small animals, with the mouse being the most commonly used species in initial evaluation.

For series [6], the system named is allergen-induced airway inflammation. The series is described as follows: Ovalbumin/Aspergillus mouse asthma model (BALF leukocytes). The following applies: 20 μmol/kg, i.p. prior to allergen challenge, two days post-challenge.
For series [7], the system named is PLE. Nature of the series: Esterase cleavage of prodrugs in the presence of PLE. Format: in vitro ADME. The following applies: pH 7.3, PLE, 72 h, 37° C.
The subject of series [8] is CCI-induced mechano-allodynia. Nature of the series: Chronic constriction injury (CCI) mouse model of neuropathic pain. The following applies: 10 μmol/kg, i.p., day 7 post-injury.
[9] abbreviates: Table 2, whole hP2Y14R-CHO cells, 20 nM fluorescent antagonist 3, mean+SEM, n = 3-6, read-out: IC50.
The mark [10] stands for this setting: read-out: mP2Y14R, IC50, Table 2, tracer 2 (20 nM, 45 min), HEK293 cells.
[11] abbreviates: Table 1, fluorescent antagonist 2, hP2Y14R-CHO cells, 3-4 determinations, read-out: IC50, hP2Y14R (μM, mean ± SEM).
[12] abbreviates: Table 6, fluorescent hP2Y14R antagonist (3), read-out: hP2Y14R, IC50.
Setting [13] is: read-out: mP2Y14R, IC50, Table 6, whole mP2Y14R-HEK cells, 200 nM of 3, mean ± SEM, n = 3-6.

Sequence of hERG ion channel (Q12809 whole entry): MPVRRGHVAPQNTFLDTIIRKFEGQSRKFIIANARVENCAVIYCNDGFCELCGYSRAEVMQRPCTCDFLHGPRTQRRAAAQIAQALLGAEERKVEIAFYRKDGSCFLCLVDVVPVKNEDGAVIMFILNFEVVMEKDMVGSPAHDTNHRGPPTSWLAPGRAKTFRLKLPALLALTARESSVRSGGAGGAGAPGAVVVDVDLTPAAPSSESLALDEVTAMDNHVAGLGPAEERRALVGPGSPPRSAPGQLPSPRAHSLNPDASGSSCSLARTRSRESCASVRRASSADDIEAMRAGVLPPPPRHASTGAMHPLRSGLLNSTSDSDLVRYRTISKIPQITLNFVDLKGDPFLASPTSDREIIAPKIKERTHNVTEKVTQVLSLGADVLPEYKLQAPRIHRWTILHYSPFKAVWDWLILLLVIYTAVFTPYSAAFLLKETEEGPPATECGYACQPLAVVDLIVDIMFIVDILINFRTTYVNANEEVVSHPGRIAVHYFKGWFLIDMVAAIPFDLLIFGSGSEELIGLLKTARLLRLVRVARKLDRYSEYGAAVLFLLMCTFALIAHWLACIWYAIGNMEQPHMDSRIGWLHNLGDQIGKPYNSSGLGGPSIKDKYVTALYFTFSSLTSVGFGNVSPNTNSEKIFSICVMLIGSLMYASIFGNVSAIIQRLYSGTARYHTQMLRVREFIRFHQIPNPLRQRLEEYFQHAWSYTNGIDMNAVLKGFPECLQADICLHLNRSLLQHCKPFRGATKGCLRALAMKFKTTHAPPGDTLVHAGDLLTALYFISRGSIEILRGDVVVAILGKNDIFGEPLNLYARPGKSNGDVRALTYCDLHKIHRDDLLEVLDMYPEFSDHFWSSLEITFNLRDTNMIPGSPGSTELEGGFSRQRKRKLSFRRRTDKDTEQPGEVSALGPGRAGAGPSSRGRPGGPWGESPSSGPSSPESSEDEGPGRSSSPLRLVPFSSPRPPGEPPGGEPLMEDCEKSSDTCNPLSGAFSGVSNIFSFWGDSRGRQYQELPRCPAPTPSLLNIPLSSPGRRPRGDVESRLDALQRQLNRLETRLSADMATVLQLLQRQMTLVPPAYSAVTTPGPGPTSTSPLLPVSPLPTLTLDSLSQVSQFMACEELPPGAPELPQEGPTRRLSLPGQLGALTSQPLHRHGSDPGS

For `N[C@H]1C[C@@H](CO)[C@H](c2ccc(-c3cc(C(=O)O)cc4cc(-c5ccc(C(F)(F)F)cc5)ccc34)cc2)C1` [Compound 135, 4-(4-((1R,2R,4R)-4-Amino-2-(hydroxymethyl)cyclopentyl)phenyl)-7-(4-(trifluoromethyl)phenyl)-2-naphthoic acid], in series [1], the “Solubility (ug/mL) pH 4” value was found to be 4.97 ± 0.11 ug/mL and the “Solubility (ug/mL) pH 7.4” value is reported as 0.66 ± 0.02 ug/mL. For the same compound, in series [2], the chromatographic logD amounted to 0.957 ± 0.046. The 50% inhibitory concentration (IC50) in series [3] (setting [9]) was determined as 0.0126 ± 0.0019 µM. Besides, the IC50 in series [4] was above 30000 nM.

In the case of `O=C(O)c1cc(-c2ccc(-c3cc(CO)on3)cc2)cc(-n2cc(-c3ccc(C(F)(F)F)cc3)nn2)c1` [Compound 29, 4′-(5-(Hydroxymethyl)isoxazol-3-yl)-5-(4-(4-(trifluoromethyl)phenyl)-1H-1,2,3-triazol-1-yl)-[1,1′-biphenyl]-3-carboxylic acid], the IC50 in series [3] (Table 2, tracer 2 (20 nM, 45 min), CHO cells, read-out: hP2Y14R, IC50) was found to be 0.296 ± 0.013 µM; in series [5] (setting [10]), 184 ± 24 nM. The “affinity at the mP2Y14R vs the human homologue” value in series [5] is on record as “slightly enhanced affinity”.

Consider `O=C(O)c1cc(-c2ccc([C@]3(O)[C@@H]4CC[C@H]3CNC4)cc2)c2ccc(-c3ccc(C(F)(F)F)cc3)cc2c1` [Compound 131, 4-(4-((1R,5S,8r)-8-Hydroxy-3-azabicyclo[3.2.1]octan-8-yl)phenyl)-7-(4-(trifluoromethyl)phenyl)-2-naphthoic acid], for which the solubility in series [1] (pH 4, aqueous buffer) worked out at 2.32 ± 0.25 µg/mL (≈ 4.48 µM); in series [1] (pH 7.4, aqueous buffer), 0.54 ± 0.09 µg/mL (≈ 1.04 µM). Moreover, in series [2], the chromatographic logD was 1.2 ± 0.01. Also, the results for the half-inhibitory concentration (IC50) in series [3], in series [4] and in series [5] were 0.0213 ± 0.0011 µM, above 30000 nM and 15.5 ± 3.3 nM, respectively.

For `CN(C)C(=O)COC(=O)c1cc(-c2ccc(-c3cc(CO)on3)cc2)c2ccc(-c3ccc(C(F)(F)F)cc3)cc2c1` [Compound 37b, 2-(Dimethylamino)-2-oxoethyl 4-(4-(5-(hydroxymethyl)isoxazol-3-yl)phenyl)-7-(4-(trifluoromethyl)phenyl)-2-naphthoate], the “eosinophil counts in the BALF” value in series [6] is recorded as “significantly reduced eosinophils to a greater extent than the parent antagonists”. Also, in series [7], the “Percent cleavage at 72 h” value is 32.6 ± 0.9%.

For `O=C(O)c1cc(-c2ccc([C@@H]3C[C@H]4CN[C@@H]3C4)cc2)c2ccc(-c3ccc(C(F)(F)F)cc3)cc2c1` [Compound 116, 4-(4-((1R,4R,6S)-2-Azabicyclo[2.2.1]heptan-6-yl)phenyl)-7-(4-(trifluoromethyl)phenyl)-2-naphthoic acid], in series [1], the “Solubility (ug/mL) pH 4” value is reported as 1.45 ± 0.05 ug/mL and the “Solubility (ug/mL) pH 7.4” value turned out to be 0.40 ± 0.13 ug/mL. Further, the chromatographic logD in series [2] was 2.11 ± 0.06. In series [3] (setting [9]), the concentration for half-maximal inhibition (IC50) is 0.0098 ± 0.0003 µM. In series [4], this compound had an IC50 above 30000 nM.

As for `NCCCNC(=O)c1ccc(-c2cc(C(=O)O)cc(-n3cc(-c4ccc(C(F)(F)F)cc4)nn3)c2)cc1` [Compound 14, 4′-((3-Aminopropyl)carbamoyl)-5-(4-(4-(trifluoromethyl)phenyl)-1H-1,2,3-triazol-1-yl)-[1,1′-biphenyl]-3-carboxylic acid], the “reversal of mechano-allodynia (figure legend)” value in series [8] is recorded as “reversal of established mechano-allodynia”. Also, the IC50 in series [3] (setting [11]) amounted to 0.588 ± 0.043 µM.

As for `N[C@@H]1C[C@H](C(=O)O)[C@@H](c2ccc(-c3cc(C(=O)O)cc4cc(-c5ccc(C(F)(F)F)cc5)ccc34)cc2)C1` [Compound 138, 4-(4-((1S,2S,4S)-4-Amino-2-carboxycyclopentyl)phenyl)-7-(4-(trifluoromethyl)phenyl)-2-naphthoic acid], the IC50 in series [3] (setting [12]) is 0.0496 ± 0.0135 µM; in series [5] (setting [13]), 40.9 ± 6.3 nM.

For `O=C(O)c1cc(-c2ccc([C@@H]3C[C@@H]4C[C@H]3C(=O)N4)cc2)c2ccc(-c3ccc(C(F)(F)F)cc3)cc2c1` [Compound 120, 4-(4-((1R,4R,5R)-3-Oxo-2-azabicyclo[2.2.1]heptan-5-yl)phenyl)-7-(4-(trifluoromethyl)phenyl)-2-naphthoic acid], in series [1], the “Solubility (ug/mL) pH 4” value turned out to be 0.31 ± 0.14 ug/mL and the “Solubility (ug/mL) pH 7.4” value came out at 3.42 ± 0.46 ug/mL. In series [3] (setting [12]), the IC50 came to 0.0395 ± 0.0098 µM. Further, the EC50 in series [4] (read-out: (EC50), μM for stimulation of hERG channel activity, patch clamp, Table 8) was determined as 18.1 µM. The IC50 in series [5] (setting [13]) was 26.2 ± 10.7 nM.

Turning to `N[C@@H]1C[C@H](CO)[C@@H](c2ccc(-c3cc(C(=O)O)cc4cc(-c5ccc(C(F)(F)F)cc5)ccc34)cc2)C1` [Compound 134, 4-(4-((1S,2S,4S)-4-Amino-2-(hydroxymethyl)cyclopentyl)phenyl)-7-(4-(trifluoromethyl)phenyl)-2-naphthoic acid], the half-inhibitory concentration (IC50) in series [3] (setting [12]) was 0.0108 ± 0.0021 µM; in series [4] it was above 30000 nM; in series [5] (setting [13]) it was 17.9 ± 2.6 nM.

In series [4], `CC(C)(C)OC(=O)NCCCc1ccc(-c2cc(C(=O)O)cc(-n3cc(-c4ccc(C(F)(F)F)cc4)nn3)c2)cc1` [Compound 20, 4′-(3-((tert-Butoxycarbonyl)amino)propyl)-5-(4-(4-(trifluoromethyl)phenyl)-1H-1,2,3-triazol-1-yl)-[1,1′-biphenyl]-3-carboxylic acid] returned an EC50 of 18 µM.

Turning to `CC(=O)N1C[C@H]2C[C@@H]1C[C@@H]2c1ccc(-c2cc(C(=O)O)cc3cc(-c4ccc(C(F)(F)F)cc4)ccc23)cc1` [Compound 118, 4-(4-((1S,4S,5S)-2-Acetyl-2-azabicyclo[2.2.1]heptan-5-yl)phenyl)-7-(4-(trifluoromethyl)phenyl)-2-naphthoic acid], the “Solubility (ug/mL) pH 7.4” value in series [1] is 1.86 ± 0.05 ug/mL. Besides, in series [2], the chromatographic logD came out at 0.921 ± 0.034. For the same compound, the IC50 came out at 0.107 ± 0.013 µM in series [3] (setting [12]) and 102 ± 39 nM in series [5] (setting [13]).

Consider `O=C(O)c1cc(-c2ccc([C@@H]3C[C@@H]4C[C@H]3CN4)cc2)c2ccc(-c3ccc(C(F)(F)F)cc3)cc2c1` [Compound 115, 4-(4-((1R,4R,5R)-2-Azabicyclo[2.2.1]heptan-5-yl)phenyl)-7-(4-(trifluoromethyl)phenyl)-2-naphthoic acid], for which the IC50 in series [3] (setting [9]) is 0.00862 ± 0.00211 µM; in series [4], above 30000 nM.

In the case of `NCC#Cc1ccc(-c2cc(C(=O)O)cc(-n3cc(-c4ccc(C(F)(F)F)cc4)nn3)c2)cc1` [Compound 19, 4′-(3-Aminoprop-1-yn-1-yl)-5-(4-(4-(trifluoromethyl)phenyl)-1H-1,2,3-triazol-1-yl)-[1,1′-biphenyl]-3-carboxylic acid], the figures for the half-inhibitory concentration (IC50) in series [3] (setting [11]) and in series [5] (setting [10]) were 0.308 ± 0.063 µM and 375 ± 175 nM, respectively. Moreover, in series [5], the “affinity at the mP2Y14R vs the human homologue” value is “nearly the same affinity in the two species”.

Regarding `N[C@@H]1C[C@H](C(=O)O)C[C@H]1c1ccc(-c2cc(C(=O)O)cc3cc(-c4ccc(C(F)(F)F)cc4)ccc23)cc1` [Compound 140, 4-(4-((1S,2R,4R)-2-Amino-4-carboxycyclopentyl)phenyl)-7-(4-(trifluoromethyl)phenyl)-2-naphthoic acid], in series [1], the “Solubility (ug/mL) pH 4” value is 0.34 ± 0.07 ug/mL and the “Solubility (ug/mL) pH 7.4” value is reported as 3.92 ± 0.10 ug/mL. Besides, the “Log D7.4” value in series [2] (HPLC-based lipophilicity) is −0.478 ± 0.050. Besides, the IC50 in series [3] (setting [9]) turned out to be 0.165 ± 0.051 µM.

As to `O=C(O)c1cc(-c2ccc(C34CCNCC3C4(F)F)cc2)c2ccc(-c3ccc(C(F)(F)F)cc3)cc2c1` (stereo not shown) [Compound 109, 4-(4-(7,7-Difluoro-3-azabicyclo[4.1.0]heptan-6-yl)phenyl)-7-(4-(trifluoromethyl)phenyl)-2-naphthoic acid], in series [1], the “Solubility (ug/mL) pH 4” value turned out to be 1.13 ± 0.34 ug/mL and the “Solubility (ug/mL) pH 7.4” value was determined as 0.25 ± 0.01 ug/mL. This compound came in with a chromatographic logD in series [2] of 2.71 ± 0.33. For the same compound, the IC50 in series [3] (setting [9]) is 0.211 ± 0.036 µM.

For `N[C@@H]1C[C@H](CO)C[C@H]1c1ccc(-c2cc(C(=O)O)cc3cc(-c4ccc(C(F)(F)F)cc4)ccc23)cc1` [Compound 136, 4-(4-((1S,2R,4R)-2-Amino-4-(hydroxymethyl)cyclopentyl)phenyl)-7-(4-(trifluoromethyl)phenyl)-2-naphthoic acid], in series [1], the “Solubility (ug/mL) pH 4” value was found to be 3.74 ± 0.09 ug/mL and the “Solubility (ug/mL) pH 7.4” value was 0.93 ± 0.20 ug/mL. For the same compound, the chromatographic logD in series [2] amounted to 1.06 ± 0.05. Further, the IC50 in series [3] (setting [9]) stood at 0.1 ± 0.019 µM.
